Measured values from the NIST ThermoML archive (doi:10.1021/je7003929).

Experiment: xn = mol fraction of the nth substance listed
Conditions: Liquid, Vibrating tube method

c1ccc2sccc2c1 [benzo[b]thiophene] + CCCCCC
Conditions	mass density [kg/m3]
332.9 K, 1028 kPa, x2 = 0.4495	892.5
332.9 K, 2010 kPa, x2 = 0.4495	893.2
332.9 K, 3021 kPa, x2 = 0.4495	894.1
332.9 K, 4018 kPa, x2 = 0.4495	895.3
332.9 K, 5018 kPa, x2 = 0.4495	896.2
332.9 K, 6008 kPa, x2 = 0.4495	897
332.9 K, 7019 kPa, x2 = 0.4495	897.9
332.9 K, 8016 kPa, x2 = 0.4495	898.8
332.9 K, 9023 kPa, x2 = 0.4495	899.8
332.9 K, 10018 kPa, x2 = 0.4495	900.7
332.9 K, 11007 kPa, x2 = 0.4495	901.6
332.9 K, 12010 kPa, x2 = 0.4495	902.4
332.9 K, 13019 kPa, x2 = 0.4495	903.3
332.9 K, 14015 kPa, x2 = 0.4495	904.2
332.9 K, 15019 kPa, x2 = 0.4495	905
332.9 K, 16002 kPa, x2 = 0.4495	905.9
332.9 K, 17014 kPa, x2 = 0.4495	906.7
332.9 K, 18017 kPa, x2 = 0.4495	907.5
332.9 K, 19023 kPa, x2 = 0.4495	908.3
332.9 K, 20028 kPa, x2 = 0.4495	909.1
342.55 K, 1028 kPa, x2 = 0.2588	982.2
342.55 K, 2013 kPa, x2 = 0.2588	983.1
342.55 K, 3013 kPa, x2 = 0.2588	983.8
342.55 K, 4017 kPa, x2 = 0.2588	984.7
342.55 K, 5024 kPa, x2 = 0.2588	985.5
342.55 K, 6012 kPa, x2 = 0.2588	986.3
342.55 K, 7004 kPa, x2 = 0.2588	987.1
342.55 K, 8017 kPa, x2 = 0.2588	987.9
342.55 K, 9012 kPa, x2 = 0.2588	988.7
342.55 K, 10016 kPa, x2 = 0.2588	989.5
342.55 K, 11015 kPa, x2 = 0.2588	990.4
342.55 K, 12022 kPa, x2 = 0.2588	991.2
342.55 K, 13030 kPa, x2 = 0.2588	992
342.55 K, 14011 kPa, x2 = 0.2588	992.8
342.55 K, 15020 kPa, x2 = 0.2588	993.6
342.55 K, 16020 kPa, x2 = 0.2588	994.3
342.55 K, 17017 kPa, x2 = 0.2588	995.1
342.55 K, 18008 kPa, x2 = 0.2588	995.8
342.55 K, 19011 kPa, x2 = 0.2588	996.6
342.55 K, 20013 kPa, x2 = 0.2588	997.4
342.63 K, 1018 kPa, x2 = 0.0629	1085.6
342.63 K, 2039 kPa, x2 = 0.0629	1086.3
342.63 K, 3009 kPa, x2 = 0.0629	1087
342.63 K, 4022 kPa, x2 = 0.0629	1087.8
342.63 K, 5025 kPa, x2 = 0.0629	1088.5
342.63 K, 5925 kPa, x2 = 0.0629	1089.1
342.63 K, 7031 kPa, x2 = 0.0629	1089.9
342.63 K, 8009 kPa, x2 = 0.0629	1090.6
342.63 K, 9007 kPa, x2 = 0.0629	1091.3
342.63 K, 10024 kPa, x2 = 0.0629	1092
342.63 K, 11013 kPa, x2 = 0.0629	1092.7
342.63 K, 12012 kPa, x2 = 0.0629	1093.4
342.63 K, 13000 kPa, x2 = 0.0629	1094.1
342.63 K, 14019 kPa, x2 = 0.0629	1094.8
342.63 K, 15027 kPa, x2 = 0.0629	1095.4
342.63 K, 16019 kPa, x2 = 0.0629	1096.1
342.63 K, 17009 kPa, x2 = 0.0629	1096.8
342.63 K, 18015 kPa, x2 = 0.0629	1097.5
342.63 K, 19019 kPa, x2 = 0.0629	1098.2
342.63 K, 20018 kPa, x2 = 0.0629	1098.8
342.71 K, 1025 kPa, x2 = 0.9432	640.4
342.71 K, 2014 kPa, x2 = 0.9432	641.8
342.71 K, 3011 kPa, x2 = 0.9432	643.3
342.71 K, 4027 kPa, x2 = 0.9432	644.8
342.71 K, 5014 kPa, x2 = 0.9432	646.2
342.71 K, 6027 kPa, x2 = 0.9432	647.6
342.71 K, 7019 kPa, x2 = 0.9432	649
342.71 K, 8015 kPa, x2 = 0.9432	650.3
342.71 K, 9010 kPa, x2 = 0.9432	651.6
342.71 K, 10003 kPa, x2 = 0.9432	652.9
342.71 K, 11017 kPa, x2 = 0.9432	654.2
342.71 K, 12006 kPa, x2 = 0.9432	655.4
342.71 K, 13024 kPa, x2 = 0.9432	656.7
342.71 K, 14021 kPa, x2 = 0.9432	657.8
342.71 K, 15006 kPa, x2 = 0.9432	659
342.71 K, 16015 kPa, x2 = 0.9432	660.2
342.71 K, 17016 kPa, x2 = 0.9432	661.3
342.71 K, 18000 kPa, x2 = 0.9432	662.4
342.71 K, 19034 kPa, x2 = 0.9432	663.6
342.71 K, 20012 kPa, x2 = 0.9432	664.6
342.72 K, 1034 kPa, x2 = 0.7491	734.5
342.72 K, 2000 kPa, x2 = 0.7491	735.8
342.72 K, 3023 kPa, x2 = 0.7491	737
342.72 K, 4016 kPa, x2 = 0.7491	738.2
342.72 K, 5014 kPa, x2 = 0.7491	739.5
342.72 K, 6014 kPa, x2 = 0.7491	740.7
342.72 K, 7019 kPa, x2 = 0.7491	741.8
342.72 K, 8012 kPa, x2 = 0.7491	743
342.72 K, 9010 kPa, x2 = 0.7491	744.1
342.72 K, 10013 kPa, x2 = 0.7491	745.3
342.72 K, 11016 kPa, x2 = 0.7491	746.4
342.72 K, 12016 kPa, x2 = 0.7491	747.5
342.72 K, 13011 kPa, x2 = 0.7491	748.6
342.72 K, 14001 kPa, x2 = 0.7491	749.6
342.72 K, 15003 kPa, x2 = 0.7491	750.7
342.72 K, 16025 kPa, x2 = 0.7491	751.7
342.72 K, 17012 kPa, x2 = 0.7491	752.8
342.72 K, 18018 kPa, x2 = 0.7491	753.8
342.72 K, 19008 kPa, x2 = 0.7491	754.7
342.72 K, 20017 kPa, x2 = 0.7491	755.8
342.79 K, 1022 kPa, x2 = 0.4495	883.3
342.79 K, 2032 kPa, x2 = 0.4495	884.3
342.79 K, 3024 kPa, x2 = 0.4495	885.3
342.79 K, 4029 kPa, x2 = 0.4495	886.4
342.79 K, 5019 kPa, x2 = 0.4495	887.3
342.79 K, 6019 kPa, x2 = 0.4495	888.3
342.79 K, 7035 kPa, x2 = 0.4495	889.3
342.79 K, 8022 kPa, x2 = 0.4495	890.2
342.79 K, 9016 kPa, x2 = 0.4495	891.1
342.79 K, 10010 kPa, x2 = 0.4495	892
342.79 K, 11010 kPa, x2 = 0.4495	893
342.79 K, 12024 kPa, x2 = 0.4495	893.9
342.79 K, 13001 kPa, x2 = 0.4495	894.8
342.79 K, 14017 kPa, x2 = 0.4495	895.7
342.79 K, 15021 kPa, x2 = 0.4495	896.6
342.79 K, 16020 kPa, x2 = 0.4495	897.4
342.79 K, 17009 kPa, x2 = 0.4495	898.3
342.79 K, 18009 kPa, x2 = 0.4495	899.2
342.79 K, 19011 kPa, x2 = 0.4495	900
342.79 K, 20011 kPa, x2 = 0.4495	900.9
352.33 K, 1030 kPa, x2 = 0.2588	973.2
352.33 K, 2012 kPa, x2 = 0.2588	973.9
352.33 K, 3021 kPa, x2 = 0.2588	974.8
352.33 K, 4018 kPa, x2 = 0.2588	975.8
352.33 K, 5020 kPa, x2 = 0.2588	976.6
352.33 K, 6024 kPa, x2 = 0.2588	977.6
352.33 K, 7016 kPa, x2 = 0.2588	978.5
352.33 K, 8000 kPa, x2 = 0.2588	979.3
352.33 K, 9020 kPa, x2 = 0.2588	980.2
352.33 K, 10010 kPa, x2 = 0.2588	981
352.33 K, 11018 kPa, x2 = 0.2588	981.9
352.33 K, 12012 kPa, x2 = 0.2588	982.7
352.33 K, 13013 kPa, x2 = 0.2588	983.5
352.33 K, 14007 kPa, x2 = 0.2588	984.3
352.33 K, 15016 kPa, x2 = 0.2588	985.2
352.33 K, 16012 kPa, x2 = 0.2588	986
352.33 K, 17013 kPa, x2 = 0.2588	986.8
352.33 K, 18003 kPa, x2 = 0.2588	987.6
352.33 K, 19011 kPa, x2 = 0.2588	988.4
352.33 K, 20014 kPa, x2 = 0.2588	989.1
